PMC4657098, “A Review of the Updated Pharmacophore for the Alpha 5 GABA(A) Benzodiazepine Receptor Model” (International Journal of Medicinal Chemistry, 2015)
Values joined by “and” are separate entries in the source; they are usually repeats but may differ in a detail not shown here. Identical values can stand only once. Like-named read-outs stand apart in the source and are kept apart here.

Key:
[1] = molecular target: α2β3γ2 GABAA/BzR (Homo sapiens, UniProt P18507+P47869); assay: Competition binding to HEK cell membranes, α2β3γ2; design: expressed in transfected cells
[2] = molecular target: α6β3γ2 GABAA/BzR (Homo sapiens, UniProt P18507+Q16445); assay: Competition binding to HEK cell membranes, α6β3γ2; design: expressed in transfected cells
[3] = molecular target: α5β3γ2 GABAA/BzR (Homo sapiens, UniProt P18507+P31644); assay: Competition binding to HEK cell membranes, α5β3γ2; design: expressed in transfected cells
[4] = molecular target: α3β3γ2 GABAA/BzR (Homo sapiens, UniProt P18507+P34903); assay: Competition binding to HEK cell membranes, α3β3γ2; design: expressed in transfected cells
[5] = molecular target: α1β3γ2 GABAA/BzR (Homo sapiens, UniProt P14867+P18507); assay: Competition binding to HEK cell membranes, α1β3γ2; design: expressed in transfected cells
[6] = molecular target: T1, α4β3γ2 GABAA/BzR (Homo sapiens, UniProt P18507+P48169); assay: biochemical; type: binding; conditions: read-out: Ki α4
T1 construct: expressed in transfected cells; host or cells: LTK cells (given for XLi-093 only)

| SMILES | Ki ([1]; read-out: Ki α2) [nM] | Ki ([2]; read-out: Ki α6) [nM] | Ki ([3]; read-out: Ki α5) [nM] | Ki ([4]; read-out: Ki α3) [nM] | Ki ([5]; read-out: Ki α1) [nM] | further results |
| --- | --- | --- | --- | --- | --- | --- |
| CC(C)(C)OC(=O)c1ncn2c1[C@@H]1CCCN1C(=O)c1cc(-c3ccco3)ccc1-2 [JYI-06] | 5.48 | 5000 | 12.6 | 5000 | 16.5 |  |
| O=C(OCC(F)(F)F)c1ncn2c1CN=C(c1ccccc1F)c1cc(-c3ccco3)ccc1-2 [JYI-54] | 172 | 1890 | 57 | 6.7 | 2.89 |  |
| C#Cc1ccc2c(c1)C(c1ccccc1F)=NCc1c(C(=O)OCC(F)(F)F)ncn1-2 [JYI-59] | 2.6 | 5000 | 11.5 | 11.8 | 1.08 |  |
| C#Cc1ccc2c(c1)C(c1ccccc1F)=NCC(=O)N2 [JYI-60] | 1.64 | 5000 | 1.7 | 4.3 | 3.73 |  |
| Cc1nnc2n1-c1ccc(Br)cc1C(c1ccccc1F)=NC2 [JYI-64 (C17H12N4FBr)] | 1.11 | 5000 | 0.87 | 0.62 | 0.305 |  |
| Cc1nnc2n1-c1ccc(Br)cc1C(c1ccccc1F)=NC2 [JYI-64] | 1.11 | 5000 | 0.87 | 0.62 | 0.305 |  |
| c1ccc2c(c1)[nH]c1cnc3c4cccnc4[nH]c3c12 [LJD-III-15E] | 14 | 1000 | 70.8 | 19 | 1.93 |  |
| c1ccc2c(c1)[nH]c1c2ncc2[nH]c3ccccc3c21 [MLT-I-70] | 1.2 | 1000 | 40.3 | 1.1 | 1.1 |  |
| Fc1ccc2c(c1)[nH]c1c2ncc2[nH]c3ccccc3c21 [MLT-II-16] | 10.4 | 10000 | 260 | 18.4 | 5.05 |  |
| Oc1ccc2c(c1)[nH]c1c2ncc2[nH]c3ccccc3c21 [MLT-II-34] | 15.9 | 1000 | 158 | 22.3 | 7.04 |  |
| O=C(OC(C(F)(F)F)C(F)(F)F)c1ncn2c1C1CCCN1C(=O)c1ccccc1-2 (centres unmarked) [MMB-III-18] | 140 |  | 14 | 78 |  | Ki [6]: 3500 nM |
| CCCC(=O)c1cc2c(cn1)[nH]c1ccccc12 [MSA-IV-35] | 16 | 3000 | 995 | 21 | 2.1 |  |
| O=C1C2C=Nc3ccccc3C2=NN1c1ccccc1 (centres unmarked) [QH-II-090 (CGS-8216), reference compound] |  |  |  |  |  | Ki ([1]; Ki α2): 0.08 nM; Ki ([2]; Ki α6): 46 nM and 17 nM; Ki ([3]; Ki α5): 0.25 nM; Ki ([4]; Ki α3): 0.12 nM; Ki ([5]; Ki α1): 0.13 nM and 0.05 nM |
| O=c1c2c[nH]c3ccccc3c-2nn1-c1ccccc1 [QH-II-090] | 0.08 | 17 | 0.25 | 0.12 | 0.05 |  |
| C#Cc1ccc2c(c1)C(=O)N(C)Cc1c(C(=O)OC(C)(C)C)ncn1-2 [RY-024] | 26.3 | 5.1 | 0.4 | 18.7 | 26.9 |  |
| CCOC(=O)c1ncoc1-c1ncn2c1C1CCN1C(=O)c1cc(Br)ccc1-2 (centres unmarked) [RY-062 (12)] |  |  |  |  |  | Ki ([1]; Figure 5, read-out: Ki α2): > 1000 nM; Ki ([2]; Figure 5, read-out: Ki α6): > 2000 nM; Ki ([3]; Figure 5, read-out: Ki α5): 172 nM; Ki ([4]; Figure 5, read-out: Ki α3): > 500 nM; Ki ([5]; Figure 5, read-out: Ki α1): > 1000 nM |
| CCOC(=O)c1ncoc1-c1ncn2c1C1CCN1C(=O)c1cc(C#C[Si](C)(C)C)ccc1-2 (centres unmarked) [RY-068 (11)] |  |  |  |  |  | Ki ([1]; Figure 5, read-out: Ki α2): 877 nM; Ki ([2]; Figure 5, read-out: Ki α6): > 1000 nM; Ki ([3]; Figure 5, read-out: Ki α5): 37 nM; Ki ([4]; Figure 5, read-out: Ki α3): 496 nM; Ki ([5]; Figure 5, read-out: Ki α1): > 500 nM |
| C#Cc1ccc2c(c1)C(=O)N1CCC1c1c(-c3ocnc3C(=O)OCC)ncn1-2 (centres unmarked) [RY-069 (13)] |  |  |  |  |  | Ki ([1]; Figure 5, read-out: Ki α2): 622 nM; Ki ([2]; Figure 5, read-out: Ki α6): > 1000 nM; Ki ([3]; Figure 5, read-out: Ki α5): 19 nM; Ki ([4]; Figure 5, read-out: Ki α3): 506 nM; Ki ([5]; Figure 5, read-out: Ki α1): 692 nM |
| C#Cc1ccc2c(c1)C(=O)N1CCC1c1c(-c3ocnc3C(=O)OCC)ncn1-2 (centres unmarked) [RY-069] |  |  |  |  |  | Ki ([1]; Ki α2): 622 nM; Ki ([2]; Ki α6): 1000 nM; Ki ([3]; Ki α5): 19 nM; Ki ([4]; Ki α3): 506 nM; Ki ([5]; Ki α1): 692 nM |
| Cc1nnc2n1-c1ccc(Cl)cc1C(c1ccccc1)=NC2 [alprazolam, reference compound] |  |  |  |  |  | Ki ([1]; Ki α2): 0.59 nM; Ki ([2]; Ki α6): 10000 nM and 1000 nM; Ki ([3]; Ki α5): 1.54 nM; Ki ([4]; Ki α3): 1.43 nM; Ki ([5]; Ki α1): 0.8 nM |
| C#Cc1ccc2c(c1)C(=O)N(C)Cc1c(C(=O)OCCCCCOC(=O)c3ncn4c3CN(C)C(=O)c3cc(C#C)ccc3-4)ncn1-2 [compound 56, 1,5-Bis(8-acetyleno-5,6-dihydro-5-methyl-6-oxo-4H-imidazo[1,5a][1,4]benzodiazepine-3-carboxy) pentyl diester] |  |  |  |  |  | Ki ([1]; Ki α2): 661 nM; Ki ([2]; Ki α6): 54.2 nM; Ki ([3]; Ki α5): 5.4 nM; Ki ([4]; Ki α3): 2670 nM; Ki ([5]; Ki α1): 231 nM |
